Test results: publication PMC6756013, “B591, a novel specific pan-PI3K inhibitor, preferentially targets cancer stem cells” (Oncogene, 2019)

Experiments:
[1] = tested on: SUM-159PT, MCF7 and MDA-MB-231 mammospheres; assay: Mammosphere formation assay; format: cell-based, human; details: treated 5 days
Experimental: Fig. 4 B591 inhibits CSCs and tumorigenesis. a B591 inhibited mammosphere-formation of SUM-159PT, MCF7, and MDA-MB-231 cells. Mammospheres were cultured as described in Materials and methods section. […] The mammospheres were subsequently passaged for another two generations and each generation of the mammospheres were cultured for 5 days without B591 and then counted under a phase-contrast microscopy. The relative mammosphere-formation ability is shown as percentage, and data represent mean ± SD from three independent experiments. c, d Representative flow cytometry plots show the effect of B591 on CD44^high/CD24^low (c) and ALDH^high (d) breast CSCs population from SUM-159PT cells. e Quantification of flow cytometry analysis of CD44^high/CD24^low and ALDH^high breast CSCs population from SUM-159PT cells. […] The live cells were collected and counted, the same amount of control cells and B591-treated cells were then incubated into the fourth left and right mammary fat pad of mice, respectively, according the indicated number for each group. Tumors were inspected 3 months later, and the tumor initiating frequency (TIF) was calculated with ELDA software. […]
In mammosphere formation assay, mammospheres were cultured in the presence of B591 for 5 days as described above and then were counted and imaged under a phase-contrast microscopy (Nikon, Japan).

[2] = tested on: eIF4E [nuc:cyto] ratio in SMMC7721, HepG2, MCF7, MDA-MB-231 and A549 cells; assay: Immunofluorescence and high content assay of eIF4E localization; format: cell-based; details: 5 h, five human cancer cell lines
Excerpt: The mRNA 5′ cap-binding protein eukaryotic initiation factor 4E (eIF4E) is a key regulator of cap-dependent translation initiation in the cytoplasm. Elevated level of eIF4E has been implicated in oncogenic transformation and tumorigenesis. The availability of eIF4E is tightly controlled through regulated interaction with 4E-BPs. eIF4E is predominantly cytoplasmic in mammalian cells, whereas serum-starvation and/or rapamycin-treatment: conditions that suppress mTOR signaling induces an accumulation of eIF4E within the nucleus. By using immunofluorescence assay, we assessed the effect of B591 on eIF4E subcellular localization of eIF4E. […] Further, five human cancer cell lines (SMMC7721, HepG2, MCF7, MDA-MB-231, and A549) were respectively treated with different concentrations of B591 for 5 h and eIF4E [nuc:cyto] ratios were determined by a high content assay using Thermo Scientific Cellomics ArrayScan VTI HCS.
Cells were seeded in 96-well plates (5,000 cells/well) and treated with DMSO or B591 for 5 h. Cells were then fixed with 4 % paraformaldehyde and followed by permeabilization with 0.1% triton X-100 and blocking in 2% bovine serum albumin in PBS. […] The subcellular location of eIF4E and the eIF4E nuclear–cytoplasmic intensity of each field per well was monitored and analyzed by using ArrayScan® VTI HCS Reader according to manufacturer’s instruction.

[3] = tested on: MDA-MB-231 orthotopic xenografts; assay: MDA-MB-231 orthotopic xenograft; format: in vivo, NOD/SCID mice; details: for Decrease of tumor burden (determined by volume): versus vehicle
Experimental: Then we evaluated the inhibitory effect of B591 on CSCs by in vivo xenograft assay (Fig. 5a). B591 (4 or 16 mg/kg) was given to the NOD/SCID mice bearing orthotopic xenografts of human breast cancer MDA-MB-231 cells for 2 weeks. […] The inhibition of PI3K/mTOR pathway by B591 in tumors was further confirmed by western blot analysis.
In MDA-MB-231 xenografts experiment, 1 × 10^6 cells were incubated into the mammary fat pad of mice orthotopically. When the volume of tumor reached above 50 mm^3, the mice were randomly divided into three groups for introperitoneal (i.p.) injection with vehicle, 4 mg/kg and 16 mg/kg B591. The tumor volume and the body weight of mice were measured during the 2-weeks treatment. In the end of treatment, the mice were killed, and the tumor tissues were dissected and dissociated into single cell suspension with Dispase II (Roche, Basel, Switzerland) according with the manufacture’s protocol. Then these single cells were used for CSCs phenotype assay, ALDH activity assay, mammosphere formation assay and limiting dilution assay in vivo as described above.

Cc1cc2c(cc1C)[n+](Cc1ccccc1Br)cn2Cc1ccc2c(c1)CCO2.[Br-] [B591, 3-(2-bromobenzyl)-1-((2,3-dihydrobenzofuran-5-yl)methyl) -5,6-dimethyl-1H-benzo[d]imidazol-3-ium bromide]
Size and number of primary mammospheres [1]: reduced by B591 in a concentration-dependent manner
eIF4E [nuc:cyto] ratio [2]: increased eIF4E [nuc:cyto] ratios in all the five cancer cells in a dose-dependent manner
Decrease of tumor burden (determined by volume) ([3]; 4 mg/kg i.p., 2 weeks): 40%
Inhibition based on final tumor weights ([3]; 16 mg/kg i.p., 2 weeks): 70.7%
Decrease of tumor burden (determined by volume) ([3]; 16 mg/kg i.p., 2 weeks): 60%
Body weight ([3]; 4 or 16 mg/kg, 2 weeks): no significant body weight loss
CD44high/CD24low and ALDHhigh breast CSCs populations in xenograft tumors ([3]; tumors dissociated at end of treatment): significantly reduced
